From patent US5891917A, “Certain acrylonitrile-sulfonamide derivatives” (Sugen, Inc., priority 1997, dated 1999)
Where two headings read alike, the source gives them in different places.

Experiments:
Type in all cases: cell-based
PDGFR-beta = biological target: T1, PDGFR-beta (Homo sapiens, UniProt P09619); test: PDGF-R Cellular Assay (ELISA); conditions: U1242 MG cells, 100 ng/ml PDGF-BB
T1 construct: the human glioblastoma line U1242 that expresses PDGFR-beta; endogenous in cells; host or cells: U1242 MG human glioblastoma cells
Excerpt: (§1) The following examples illustrate the ability of the exemplary compounds to inhibit receptor tyrosine kinases, such as HER2 and/or EGFR. The following target cells were used for cellular kinase assays: NIH3T3 clone C7 (Honegger et al., supra) engineered to over-express human EGF receptor; NIH3T3 cells engineered to over-express a chimeric receptor containing the EGFR extracellular domain and the HER2 intracellular kinase domain; the human mammary carcinoma line BT474 (ATCC HTB2) expressing HER2; and the human glioblastoma line U1242 that expresses PDGFR-beta. Growth assays were carried out using human mammary epithelial SKBR3 (ATCC HTB30) cells (SKBR3 cells over-express HER2), SKOV3 (ATCC HTB77) human ovarian cancer cell line (SKOV3 cells also over-express HER2), A431 cells (A431 cells over-express EGFR) MCF7 human breast carcinoma cells, MCF7 cells overexpressing the HER2 kinase (MCF7-HER2), NIH3T3 cells, and NIH3T3 cells overexpressing the HER2 kinase (3T3-HER2.
The PDGF cellular kinase assay was carried out as follows: cells are lysed in 0.2M Hepes, 0.15M NaCl, 10% V/V glycerol, 0.04% Triton X-100, 5 mM EDTA, 5 rnM Na+ vanadate and 2 mM Na+ pyrophosphate; cell lysates are then added to an ELISA plate coated with an anti-PDGF receptor antibody (Genzyme); ELISA plates are coated at 0.5 μg of antibody/well in 150 μl of PBS for 18 hours at 4° C. prior to the addition of the lysate; the lysate is incubated in the coated plates for 1 hour and then washed four times in TBST (35 mM Tris-HCl pH 7.0, 0.15M NaCl, 0.1% Triton X100); anti-phosphotyrosine antibody (100 μl in PBS) is added and the mixture is incubated for 30 minutes at room temperature; the wells were then washed four times in TBST, a secondary antibody conjugated to POD (TAGO) is added to each well, and the treated well are incubated for 30 minutes at room temperature; the wells are then washed four times in TBST, ABTS/H2 O2 solution is added to each well and the wells are incubated for two minutes; absorbance is then measured at 410 nm.
U1242 MG cells were plated in 96-well plates at a concentration of 5×10^4 cells/well in cultured media containing 0.5% FBS. The cells were incubated for 24 hours. The cells were then treated with a particular compound for 2 hours followed by the addition of 100 ng/ml PDGF-BB and incubation for 10 minutes.
Cells were lysed in 0.2M Hepes, 0.15M NaCl, 10% V/V glycerol, 0.04% Triton X-100, 5 mM EDTA, 5 mM Na+ vanadate and 2 mM Na+ pyrophosphate. Cell lysates were then added to an ELISA plate coated with an anti-PDGF receptor antibody (Genzyme). ELISA plates were coated at 0.5 μg of antibody/well in 150 μl of PBS for 18 hours at 4° C. prior to the addition of the lysate.
The lysate was incubated in the coated plates for 1 hour and then washed four times in TBST (35 mM Tris-HCl pH 7.0, 0.15M NaCl, 0.1 % Triton X-100). Anti-phosphotyrosine antibody (100 μl in PBS) was added and the mixture was incubated for 30 minutes at room temperature. The wells were then washed four times in TBST, a secondary antibody conjugated to POD (TAGO) was added to each well, and the treated well were incubated for 30 minutes at room temperature. The wells were then washed four times in TBST, ABTS/H2 O2 solution was added to each well and the wells were incubated for two minutes. Absorbance was then measured at 410 nm.

3T3/HER2 cells = test: 3T3 Growth Assay (3T3/HER2)
Excerpt: as §1
The 3T3 growth assay was carried out as follows: […]
(1) HER2C7 (engineered to express HER2) and NIH3T3C7 (as the control) cells are used for this assay. NIH3T3C7 cells are seeded at 2500 cells/well, […] in 10% CS+2 mM GLN DMEM, in a 96 well plate; HER2C7 cells are seeded at 6000 cells/well, 100 μl/well in 2% FBS+2 mM GLN DMEM, in a 96 well plate. Cells are incubated at 37° C., 5% CO2 overnight to allow for cell attachment to the plate;
(2) The […] compound is added to the cells at day 2. The compounds are prepared in the appropriate growth medium (10% CS+2 mM) GLN DMEM for NIH3T3C7 cells; 2% FBS+2 mM GLN DMEM for HER2C7 cells) in a 96 well plate, and serially diluted. A total of 100 μl/well medium of the diluted compounds is added into the cells. The total volume of each well is 200 μl. Quadruplicates (wells) and 11 concentration points are applied to each compound tested.
(3) After the cells are treated with the compound for 4 days, the cells are washed with PBS and fixed with 200 μl/well ice-cold 10% TCA for one hour at 0°-5° C. condition.
(4) Remove TCA and rinse wells 5 times with deionized water. Dry plates upside down with paper towels. Stain cells with 0.4% SRB at 100 μl/well for 10 minutes.
(5) Pour off SRB and rinse plate 5 times with 1 % acetic acid. Dry plate completely.
(6) Solubilize the dye with 10 mM Tris-base at 100 μl/well for 10 minutes on a shaker.
(7) Read the plate at dual wavelengths at 570 nm and 630 nm on Dynatech Elisa plate reader.

MCF7 cells = test: MCF-7 SRB Growth Assay; conditions: Homo sapiens, read-out: Growth Data: MCF7 10% FBS
Excerpt: as §1
MCF-7 cells are seeded at 2000 cells/well in a 96-well flat bottom plate in normal growth media, which was 10% FBS/RPMI supplemented with 2 mM Glutamine. The plate of cells is incubated for about 24 hours at […] after which it receives an equal volume of compound dilution per well making the total volume per well 200 μl. The compound is prepared at 2 times the desired highest final concentration and serially diluted in the normal growth media in a 96-well round bottom plate and then transferred to plate of cells. DMSO serves as the vector control up to 0.2% as final concentration. The cells are then incubated at 37° C. in a humidified 5% CO2 incubator.
Four days following dosing of compound, the media is 15 discarded and 200 μ/well of ice-cold 10% TCA (Trichloroacetic Acid) is added to fix cells. After 60 minutes at 4° C., the TCA is discarded and the plate is rinsed 5 times with water. The plate is then air-dried and 100 μl/well of 0.4% SRB (Sulforhodamine B from Sigma) 20 in 1% Acetic Acid is added to stain cells for 10 minutes at room temperature. The SRB is discarded and the plate is rinsed 5 times with 1% Acetic Acid. After the plate is completely dried, 100 μl/well of 10 mM Tris-base is added to solubilize the dye. After 5 to 10 minutes, the plate is read on a Dynatech ELISA Plate Reader at dual wavelengths at 570 nm and 630 nm.

[1] = read-out: Growth Data: 3T3/HER2 2% FBS
[2] = read-out: Growth Data: 3T3/HER2 10% FBS

T1 sequence (P09619 33-1106): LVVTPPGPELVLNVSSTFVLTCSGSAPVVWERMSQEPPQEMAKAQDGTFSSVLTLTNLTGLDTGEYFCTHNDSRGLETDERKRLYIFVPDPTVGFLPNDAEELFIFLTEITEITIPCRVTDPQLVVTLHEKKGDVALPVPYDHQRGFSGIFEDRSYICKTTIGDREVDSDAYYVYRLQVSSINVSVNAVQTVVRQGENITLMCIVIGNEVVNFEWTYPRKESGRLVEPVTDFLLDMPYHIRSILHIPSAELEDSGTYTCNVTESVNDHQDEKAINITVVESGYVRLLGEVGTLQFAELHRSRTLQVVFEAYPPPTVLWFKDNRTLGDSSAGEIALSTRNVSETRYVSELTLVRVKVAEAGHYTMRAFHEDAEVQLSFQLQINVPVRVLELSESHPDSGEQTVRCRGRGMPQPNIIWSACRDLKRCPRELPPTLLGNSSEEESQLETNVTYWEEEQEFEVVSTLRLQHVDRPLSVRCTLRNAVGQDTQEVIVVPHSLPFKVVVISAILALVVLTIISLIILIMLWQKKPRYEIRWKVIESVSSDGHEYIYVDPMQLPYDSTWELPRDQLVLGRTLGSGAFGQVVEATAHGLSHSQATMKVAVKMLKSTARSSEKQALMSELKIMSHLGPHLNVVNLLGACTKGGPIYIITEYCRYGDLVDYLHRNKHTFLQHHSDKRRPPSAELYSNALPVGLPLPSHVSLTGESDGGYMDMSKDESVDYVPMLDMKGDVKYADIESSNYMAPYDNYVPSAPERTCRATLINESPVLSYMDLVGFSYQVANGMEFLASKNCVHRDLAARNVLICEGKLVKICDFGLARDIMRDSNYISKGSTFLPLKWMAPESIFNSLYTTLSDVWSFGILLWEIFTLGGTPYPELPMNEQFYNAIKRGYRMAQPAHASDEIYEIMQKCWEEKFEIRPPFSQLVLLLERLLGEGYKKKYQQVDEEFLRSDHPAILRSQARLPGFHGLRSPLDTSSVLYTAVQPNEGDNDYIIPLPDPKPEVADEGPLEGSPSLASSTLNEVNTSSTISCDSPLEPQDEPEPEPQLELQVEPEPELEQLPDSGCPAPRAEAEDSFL

Row | SMILES | IC50 (PDGFR-beta) [µM] | IC50 (3T3/HER2 cells; [1]) [µM] | IC50 (3T3/HER2 cells; [2]) [µM] | IC50 (MCF7 cells) [µM]
1 | CC(C)c1cc(/C=C(\C#N)S(=O)(=O)c2ccccc2)cc(C(C)C)c1O [Compound 731] | > 50 | 12 | 70 | 12
2 | CC(C)c1cc(/C=C(\C#N)S(=O)(=O)NCc2ccccc2)cc(C(C)C)c1O [Compound 732] | 50 | 15 | 95 | 13
3 | N#C/C(=C\c1ccc(O)cc1Cl)S(=O)(=O)NCc1ccccc1 [Compound 733] | > 50 | 60 | > 100 | 65
4 | N#C/C(=C\c1ccc(O)cc1Cl)S(=O)(=O)NCCCc1ccccc1 [Compound 734] | > 50 | 55 | > 100 | 56
5 | CC(C)(C)c1cc(/C=C(\C#N)S(=O)(=O)Cc2cccc(C(F)(F)F)c2)cc(C(C)(C)C)c1O [Compound 735] | > 100 | 5 | 22 | 0.7
6 | CC(C)c1cc(/C=C(\C#N)S(=O)(=O)Cc2cccc(C(F)(F)F)c2)cc(C(C)C)c1O [Compound 736] | > 100 | 18 | 55 | 8
7 | CC(C)c1cc(/C=C(\C#N)S(=O)(=O)c2cccs2)cc(C(C)C)c1O [Compound 737] | > 100 | 40 | 90 | 16
8 | CC(C)c1cc(/C=C(\C#N)S(=O)(=O)c2ccsc2)cc(C(C)C)c1O [Compound 738] | > 100 | 45 | > 100 | 17
9 | Cc1cc(/C=C(\C#N)S(=O)(=O)Cc2cccc(C(F)(F)F)c2)cc(C)c1O [Compound 739] | > 100 |  |  | 35
10 | CC(C)(C)c1cc(/C=C(\C#N)S(=O)(=O)c2ccc(F)cc2)cc(C(C)(C)C)c1O [Compound 740] | > 100 | 3.8 | 20 | 0.2
11 | CC(C)c1cc(/C=C(\C#N)S(=O)(=O)c2ccc(F)cc2)cc(C(C)C)c1O [Compound 741, (E)-3-(3,5-Diisopropyl-4-hydroxyphenyl)-2-(4-fluorophenylsulfonyl)acrylonitrile] | > 100 | 15 | 75 | 8
12 | CC(C)(C)c1cc(/C=C(\C#N)S(=O)(=O)c2cccs2)cc(C(C)(C)C)c1O [Compound 742] | > 100 | 7 | 38 | 2
13 | N#C/C(=C\c1ccc(O)c(O)c1)S(=O)(=O)c1cccs1 [Compound 743, (E)-3-(3,4-Dihydroxyphenyl)-2-[(thien-2-yl)sulfonyl]acrylonitrile] | > 100 |  |  | 
14 | Cc1cc(/C=C(\C#N)S(=O)(=O)c2ccc(F)cc2)cc(C)c1O [Compound 744] | > 100 | > 100 | > 100 | > 100
15 | CC(C)(C)c1cc(/C=C(\C#N)S(=O)(=O)c2ccsc2)cc(C(C)(C)C)c1O [Compound 746] | > 100 | 7 | 40 | 2
16 | CC(C)c1cc(/C=C(\C#N)S(=O)(=O)c2ccccn2)cc(C(C)C)c1O [Compound 747] | > 50 | > 100 | > 100 | 55
17 | Cc1cc(/C=C(\C#N)S(=O)(=O)c2ccccc2)cc(C)c1O [Compound 748] | > 100 | > 100 | > 100 | > 100
